From US11572590B2, “Methods for evaluating tumor cell spheroids using 3D microfluidic cell culture device” (Dana-Farber Cancer Institute, Inc., priority 2017, dated 2023)
Read-outs that look alike come from different tables or passages of the source.

Legend:
[1] = biological target: T1, IKKε (IKBKE) (Homo sapiens, UniProt Q14164); assay: SelectScreen Kinase Profiling, IC50 for IKKε (IKBKE); format: biochemical; details: ATP Km app, ZLYTE; for inhibition: IKBKE (IKK epsilon)
T1 sequence (Q14164 1-716): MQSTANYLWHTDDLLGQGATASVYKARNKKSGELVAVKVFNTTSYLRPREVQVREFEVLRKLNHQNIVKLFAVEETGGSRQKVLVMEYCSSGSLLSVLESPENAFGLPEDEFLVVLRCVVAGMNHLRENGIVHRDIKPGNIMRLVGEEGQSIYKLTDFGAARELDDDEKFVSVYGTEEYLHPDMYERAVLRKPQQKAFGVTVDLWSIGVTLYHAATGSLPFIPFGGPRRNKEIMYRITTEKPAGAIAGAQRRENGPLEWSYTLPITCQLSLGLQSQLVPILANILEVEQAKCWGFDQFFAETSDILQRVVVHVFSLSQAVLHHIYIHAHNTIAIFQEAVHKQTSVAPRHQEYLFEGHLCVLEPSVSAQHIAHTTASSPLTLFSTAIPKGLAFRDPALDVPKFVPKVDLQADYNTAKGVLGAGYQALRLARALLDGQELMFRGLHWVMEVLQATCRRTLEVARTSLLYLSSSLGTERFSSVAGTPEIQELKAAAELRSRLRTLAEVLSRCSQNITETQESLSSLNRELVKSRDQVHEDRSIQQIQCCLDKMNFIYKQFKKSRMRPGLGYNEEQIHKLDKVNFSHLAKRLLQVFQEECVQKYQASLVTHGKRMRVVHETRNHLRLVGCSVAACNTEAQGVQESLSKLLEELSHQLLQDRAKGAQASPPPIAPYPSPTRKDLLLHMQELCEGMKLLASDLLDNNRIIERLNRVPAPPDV
Protocol: (§1) Biochemical single point inhibition and IC50 concentrations for TBK1, IKKε (IKBKE), and off-target kinases were determined at ThermoFisher Scientific using SelectScreen Kinase Profiling Services (Madison, Wis., USA) (Tables S4A and S4B-1-7). To determine cellular potency, the human colorectal cancer carcinoma cell line HCT116 (ATCC, Manassas, Va.) was maintained in T175 flasks in complete RPMI medium; RPMI 1640 supplemented with 10% FBS, 1× Penicillin-Streptomycin solution and 1×MEM (non-essential amino acids). HCT116 cells were grown to 90-95% confluency in T175 flasks containing complete RPMI medium and transfected in bulk using Lipofectamine 2000 (Invitrogen, Carlsbad, Calif.) with 70 μg of ISG54-luciferase reporter plasmid (Elim Biopharmaceuticals Inc., Hayward, Calif.). The reporter plasmid contains a luciferase gene expression cassette under the transcriptional regulation of the promoter of the human interferon stimulated gene 54 (ISG54). Transfection of the cells was allowed to take place for 6 hours, after which the cells were harvested by treatment with 0.25% trypsin EDTA (Corning Inc., Corning, N.Y.). Trypsinized cells were added to 384-well poly-d-lysine treated black clear bottom tissue culture assay plates (Greiner Bio-One GmbH, Kremsmünster, Austria) at a density of 20,000 cells/well in 80 μL of complete RPMI medium and incubated overnight. After 16-18 hours post-transfection, the assay plates were washed with PBS (Corning Inc., Corning, N.Y.), followed by addition of 80 μL/well of serum-free RPMI 1640 medium containing 1× Penicillin-Streptomycin solution, 1×MEM and 350 nL of DMSO or titrations of Compound 1. Compound 1 titrations were generated by 1.5-fold dilution steps in two overlapping serial dilution series to generate a 40-point compound dose range. After incubation at 37° C. for 1 hour, the cells were stimulated with Poly(I:C) (InvivoGen, San Diego, Calif.) at a final concentration of 15 μg/mL in Optimem media (Life Technologies, Rockville, Md.). The assay plates were incubated for 5 hours at 37° C., followed by addition of One-Glo luciferase firefly reagent (Promega, Madison, Wis.) at 1:1 volume/well and luminescence was measured in an EnVision Multilabel Plate Reader (PerkinElmer, Santa Clara, Calif.). The EC50 values were calculated from the fit of the dose-response curves to a four-parameter equation. All EC50 values represent geometric mean values of a minimum of four determinations.

[2] = test system: human CD4+ and CD8+ T cells; assay: IFNγ secretion by anti-CD3/anti-CD28 stimulated T cells; format: cell-based; details: dose-titration, 96 hours
Protocol: Freshly isolated human CD4+ and CD8+ T cells were obtained from AllCells (Alameda, Calif., USA). Cells were spun down and resuspended in serum free Xvivo15 media (Lonza Walkersville, Inc., Chicago, Ill., USA) supplemented with 5 ng/mL […] and incubated overnight at 37° C. Cells were plated on anti-CD3 coated plates (5 μg/mL OKT3, eBioscience, Dallas, Tex., USA, overnight) with 2 μg/mL anti-CD28 (eBioscience, Dallas, Tex., USA). Cells are treated in replicate plates with a dose-titration of Compound 1 for 24 hours for IL-2 and 96 hours for IFNγ. IL-2 and IFNγ in the supernatant were measured using single- or multi-plex immunoassay (Mesoscale Discovery, Rockville, Md., USA). Jurkat T cell leukemia cells (clone E61 obtained from ATCC) plated on anti-CD3 coated plates were treated with a dose titration of Compound 1 for 24 hours. IL-2 in the supernatant was measured as described above.

[3] = biological target: off-target kinases (Homo sapiens, UniProt P36888); assay: SelectScreen Kinase Profiling, single point inhibition and IC50 for off-target kinases; format: biochemical; set-up: other: FLT3 ITD; 1000 μM; details: FLT3 ITD; 1000 μM; LanthaScreen Binding
Protocol: as §1, with “Compound 1 titrations were generated by 1.5-fold dilution steps in two overlapping serial dilution series to generate a 40-point compound dose range. After incubation at 37° C. for 1 hour, the cells were stimulated with Poly(I:C) (InvivoGen, San Diego, Calif.) at a final concentration of 15 μg/mL in Optimem media (Life Technologies, Rockville, Md.).” left out, “All EC50 values represent geometric mean values of a minimum of four determinations.” left out

[4] = biological target: off-target kinases (Homo sapiens, UniProt P12931); assay: as above; format: biochemical; set-up: other: SRC N1; 1000 μM; ATP Km app; ZLYTE; details: SRC N1, ATP Km app, ZLYTE
Protocol: as §1, with “Compound 1 titrations were generated by 1.5-fold dilution steps in two overlapping serial dilution series to generate a 40-point compound dose range. After incubation at 37° C. for 1 hour, the cells were stimulated with Poly(I:C) (InvivoGen, San Diego, Calif.) at a final concentration of 15 μg/mL in Optimem media (Life Technologies, Rockville, Md.).” left out, “All EC50 values represent geometric mean values of a minimum of four determinations.” left out

Chain of off-target kinases (Homo sapiens, UniProt P12931) (P12931 1-542 isoform P12931-2): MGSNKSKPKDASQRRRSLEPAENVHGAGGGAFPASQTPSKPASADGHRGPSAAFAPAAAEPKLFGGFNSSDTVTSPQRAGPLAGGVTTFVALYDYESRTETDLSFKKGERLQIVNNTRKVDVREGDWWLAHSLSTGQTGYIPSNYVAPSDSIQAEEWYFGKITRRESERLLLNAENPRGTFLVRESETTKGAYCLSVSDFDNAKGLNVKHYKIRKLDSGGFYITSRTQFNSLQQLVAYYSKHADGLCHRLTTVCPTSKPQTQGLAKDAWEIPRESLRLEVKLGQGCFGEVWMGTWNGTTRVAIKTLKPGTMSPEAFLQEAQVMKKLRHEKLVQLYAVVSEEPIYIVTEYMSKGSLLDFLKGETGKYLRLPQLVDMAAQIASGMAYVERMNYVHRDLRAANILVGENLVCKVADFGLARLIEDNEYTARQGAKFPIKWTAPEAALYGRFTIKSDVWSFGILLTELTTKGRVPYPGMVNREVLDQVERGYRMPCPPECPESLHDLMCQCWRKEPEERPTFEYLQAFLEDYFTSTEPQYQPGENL

Compound N#Cc1cc(-c2ncnc(Nc3ccc(N4CCN(C5COC5)CC4)cc3)n2)ccc1OC1CCOCC1 [Compound 1, 5-(4-((4-(4-(oxetan-3-yl)piperazin-1-yl)phenyl)amino)-1,3,5-triazin-2-yl)-2-((tetrahydro-2H-pyran-4-yl)oxy)benzonitrile] has an inhibition ([1]; read-out: % Inhibition 1) of 106%, an inhibition ([1]; read-out: % Inhibition 2) of 103% and an inhibition ([1]; read-out: % Inhibition Avg) of 105%. The Hillslope [1] was 1.06, the IC50 [1] was 5.59 nM and the “fold selectivity (IKBKE)” value ([1]; IC50 relative to IKBKE IC50) was 1.0 fold. For the same compound, the “fold selectivity (TBK1)” value ([1]; IC50 relative to TBK1 IC50) was 5.4 fold, the “secretion of IFN-γ from purified CD4+ and CD8+ T cells” value [2] was “enhanced secretion” and the “% Inhibition 1” value [3] was 64%. The “% Inhibition 2” value [3] was 62%, the “% Inhibition Avg” value [3] was 63% and the inhibition ([4]; read-out: % Inhibition 1) was 54%. It also gave an inhibition ([4]; read-out: % Inhibition 2) of 60% and an inhibition ([4]; read-out: % Inhibition Avg) of 57%.
